Experiment [1] deals with spleen cells of Ovalbumin-immunized Balb/c mice. Briefly: Th1/Th2 cytokine profiling assay. Format: cell-based, mouse. To be noted: 10 micrograms per ml; Ovalbumin restimulation; 72 hours.
Text: The Balb/c mice (originated in 1923, it is a popular strain and is used in many different research disciplines. Also classified as an inbred from the production of 20 or more successive brother-sister matings, the Balb/c mouse is albino and small in size) were immunized on Days 1, 15, and 29 with Ovalbumin (Ovalbumin is the main protein found in egg white, commonly used to stimulate an immunological reaction in test animals) in PBS (5 micrograms/injection). On day 50, spleens of the mice were harvested (3 weeks after last boost with Ovalbumin). Cells were cultured (2×10^5/well in triplicate) and incubated with culture medium or test peptides—10 micrograms per ml—for 30 min. Thereafter, additional Ovalbumin was added to the cells at 10 micrograms/ml for in vitro restimulation of the cells. 72 hours later, cell supernatants were harvested and assayed using the Becton Dickinson Mouse Th1/Th2 Cytokine CBA Kit.
The subject of a further experiment is HUVEC. In words: Endothelial tube formation assay. Format: cell-based, human. As to conditions: 10 micrograms per ml, 20 hours. An excerpt:
Positive control was vehicle only. […] Raw data were expressed as average tubule lenghs in pixels±standard deviation.

Another experiment deals with HCMV strain AD169. In words: HCMV plaque formation assay in MRC-5 cells. As to conditions: 10 micrograms per ml, 7-10 days.
Another experiment concerns RAW 264.7 cells. In words: Phagocytosis assay. As to conditions: 10 micrograms per ml, Fluorescein-labeled Escherichia coli.
In experiment [2] the test system is hepatitis B virus (HBV) ayw strain. Briefly: HBV experimental assay system, secreted HBV DNA by TaqMan PCR. Format: cell-based. As to conditions: 10 micrograms per ml; HepG2-2.2.15 cells; six days. A general note: Quantitative PCR measures a nucleic acid by following its amplification.
Experiment [3] deals with Primary Human endothelial cells (HUVEC). In words: Endothelial cell migration assay. As to conditions: 10 micrograms per ml, 22 hours. The class given is cell-based. How it is done:
Thereafter, designated concentration of testing peptides—10 micrograms per ml—was added in duplicate wells.

Square brackets hold non-standard residues; d marks the D form. Ends that are not written are not given here. pGlu = O=C1CC[C@@H](C(=O)O)N1

Text for HCMV strain AD169: Cells were split twic a week 1:2.
Ganciclovir was used as positive control.

For the substance “Gly-Leu-Ser-Lys-Gly-Cys-Phe-Gly-Leu-Lys-Leu-Asp-Arg-Ile-Gly-Ser-Met-Ser-Gly-Leu-Gly-Cys-OH (GLSKGCFGLKLDRIGSMSGLGC-OH; cysteine pairing not given here) [peptide 1]”, in experiment [1], the “IFNγ spleen cells; TH1 response (% of control)” value is listed as 140.2 % of control, the “IL-2 spleen cells (% of control)” value was 52.2 % of control, the “IL-4 spleen cells; TH2 response (% of control)” value is given as 0.0 % of control and the “IL-5 spleen cells; TH2 response (% of control)” value is 56.3 % of control. In addition, the “TNF-a spleen cells; TH1 response (% of control)” value in experiment [1] is recorded as 111.8 % of control. Besides, the “inhibition of the tube formation of human endothelial cells” value with HUVEC amounted to 22%. Besides, the “inhibition of HCMV plaque formation as compared to the virus control experiment” value in the experiment on HCMV strain AD169 was “did not show any inhibition”. Also, the “induction of phagocytosis as compared to the virus control experiment” value in the experiment with RAW 264.7 cells is 42.9%. The “inhibition of HBV replication as compared to the virus control infection” value in experiment [2] turned out to be 10.1%.

Turning to “Pyr-Ala-Asp-Pro-Asn-Lys-Phe-Tyr-Gly-Leu-Met-NH2 ([pGlu]ADPNKFYGLM-NH2; SMILES CSCC[C@H](NC(=O)[C@H](CC(C)C)NC(=O)CNC(=O)[C@H](Cc1ccc(O)cc1)NC(=O)[C@H](Cc1ccccc1)NC(=O)[C@H](CCCCN)NC(=O)[C@H](CC(N)=O)NC(=O)[C@@H]1CCCN1C(=O)[C@H](CC(=O)O)NC(=O)[C@H](C)NC(=O)[C@@H]1CCC(=O)N1)C(N)=O) [peptide 2]”, in experiment [3], the “induction of the migration of human endothelial cells” value is recorded as 15%. Also, in experiment [1], the “IFNγ spleen cells; TH1 response (% of control)” value is recorded as 74.2 % of control, the “IL-2 spleen cells (% of control)” value was 0.0 % of control, the “IL-4 spleen cells; TH2 response (% of control)” value is 0.0 % of control and the “IL-5 spleen cells; TH2 response (% of control)” value is 53.0 % of control. For the same substance, the “TNF-a spleen cells; TH1 response (% of control)” value in experiment [1] is on record as 85.7 % of control. In addition, the “inhibition of the tube formation of human endothelial cells” value with HUVEC was 6%. Further, in the experiment with HCMV strain AD169, the “inhibition of HCMV plaque formation as compared to the virus control experiment” value is “did not show any inhibition”. The “induction of phagocytosis as compared to the virus control experiment” value with RAW 264.7 cells is on record as “did not induce phagocytosis”. In experiment [2], the “inhibition of HBV replication as compared to the virus control infection” value is “no effect”.

(Values after US20100249017A1, “USE OF CNP-22, ALONE OR IN COMBINATION WITH PHYSALEMIN, AS A THERAPEUTIC AGENT” (priority 2007, published 2010).)
